Converted amounts (≈) assume the structure as drawn. The source made the active and inactive calls. The rule behind the calls is not given here.
What was measured:
[1] = system: Klebsiella pneumoniae; experiment: Antimicrobial activity against Klebsiella pneumoniae CRE harboring beta-lactamase KPC-2 by broth dilution method; type: functional
[2] = system: Escherichia coli; experiment: Antimicrobial activity against Escherichia coli CF102 harboring beta-lactamase TEM-3 by broth dilution method; type: functional
[3] = system: Pseudomonas aeruginosa; experiment: Antimicrobial activity against Pseudomonas aeruginosa HPA996 harboring beta-lactamase VIM-2 by broth dilution method; type: functional
[4] = system: Stenotrophomonas maltophilia; experiment: Antimicrobial activity against Stenotrophomonas maltophilia 1AC736 assessed as number of passages required for MIC to rise above 4 times original MIC; type: functional
[5] = system: Enterobacter cloacae; experiment: Antimicrobial activity against Enterobacter cloacae S9369 assessed as number of passages required for MIC to rise above 4 times original MIC; type: functional
[6] = system: Escherichia coli; experiment: Antimicrobial activity against Escherichia coli Libyien harboring beta-lactamase CMY-2 by broth dilution method; type: functional
[7] = system: Pseudomonas aeruginosa; experiment: Antimicrobial activity against oprD protein deficient Pseudomonas aeruginosa C2 by broth dilution method; type: functional
[8] = system: Burkholderia sp.; experiment: Antimicrobial activity against Burkholderia sp. by broth dilution method; type: functional
[9] = system: Acinetobacter baumannii; experiment: Antimicrobial activity against Acinetobacter baumannii HPA 327009 harboring beta-lactamase OXA-25 by broth dilution method; type: functional
[10] = system: Pseudomonas aeruginosa; experiment: Antimicrobial activity against Pseudomonas aeruginosa by broth dilution method; type: functional
[11] = system: Pseudomonas aeruginosa; experiment: Antimicrobial activity against mexAB-oprM, mexCD-oprJ, mexEF-oprN, mexJK, mexXY, opmH and pscC gene deficient Pseudomonas aeruginosa PAO750 by broth dilution method; type: functional
[12] = system: Providencia rettgeri; experiment: Antimicrobial activity against Providencia rettgeri J96 harboring beta-lactamase IMP-1 by broth dilution method; type: functional
[13] = system: Pseudomonas aeruginosa; experiment: Antimicrobial activity against Pseudomonas aeruginosa 1937E harboring beta-lactamase PSE-4 and class C enzymes by broth dilution method; type: functional
[14] = system: Acinetobacter baumannii; experiment: Antimicrobial activity against Acinetobacter baumannii HPA74510 assessed as number of passages required for MIC to rise above 4 times original MIC; type: functional
[15] = system: Acinetobacter baumannii; experiment: Antimicrobial activity against Acinetobacter baumannii HPA I-16 harboring beta-lactamase OXA-27 by broth dilution method; type: functional
[16] = system: Providencia rettgeri; experiment: Antimicrobial activity against Providencia rettgeri by broth dilution method; type: functional
[17] = system: Enterobacter cloacae; experiment: Antimicrobial activity against Enterobacter cloacae by broth dilution method; type: functional
[18] = system: Citrobacter freundii; experiment: Antimicrobial activity against Citrobacter freundii by broth dilution method; type: functional
[19] = system: Escherichia coli; experiment: Antimicrobial activity against Escherichia coli by broth dilution method; type: functional
[20] = system: Pseudomonas aeruginosa; experiment: Antimicrobial activity against Pseudomonas aeruginosa 527 assessed as number of passages required for MIC to rise above 4 times original MIC; type: functional
[21] = system: Serratia marcescens; experiment: Antimicrobial activity against Serratia marcescens by broth dilution method; type: functional
[22] = system: Klebsiella pneumoniae; experiment: Antimicrobial activity against Klebsiella pneumoniae by broth dilution method; type: functional
[23] = system: Pseudomonas aeruginosa; experiment: Antimicrobial activity against Pseudomonas aeruginosa 1973E harboring beta-lactamase PSE-1 and class C enzymes by broth dilution method; type: functional
[24] = system: Pseudomonas aeruginosa; experiment: microbe, parasite or virus in culture; details: BA
Description: Antimicrobial activity against Pseudomonas aeruginosa BA harboring beta-lactamase Class C by broth dilution method

[25] = system: Acinetobacter junii; experiment: Antimicrobial activity against Acinetobacter junii 15218 assessed as number of passages required for MIC to rise above 4 times original MIC; type: functional
[26] = system: Providencia stuartii; experiment: Antimicrobial activity against Providencia stuartii by broth dilution method; type: functional
[27] = system: Pseudomonas aeruginosa; experiment: Antimicrobial activity against Pseudomonas aeruginosa B4 by broth dilution method; type: functional
[28] = system: Stenotrophomonas maltophilia; experiment: Antimicrobial activity against Stenotrophomonas maltophilia by broth dilution method; type: functional
[29] = system: Pseudomonas aeruginosa; experiment: Antimicrobial activity against Pseudomonas aeruginosa BA by broth dilution method; type: functional; details: Pseudomonas aeruginosa, BA; read-out: MIC
[30] = system: Escherichia coli; experiment: Antimicrobial activity against Escherichia coli A harboring beta-lactamase CTX-M 15 by broth dilution method; type: functional
[31] = system: Serratia marcescens; experiment: Antimicrobial activity against Serratia marcescens 1T9 harboring beta-lactamase Class C by broth dilution method; type: functional
[32] = system: Escherichia coli; experiment: Antimicrobial activity against Escherichia coli HB101 harboring beta-lactamase TEM-5 by broth dilution method; type: functional
[33] = system: Pseudomonas aeruginosa; experiment: Antimicrobial activity against mexAB-oprM protein and mexCD-oprJ deficient Pseudomonas aeruginosa PAO253 overexpressing MexEF-OprN gene by broth dilution method; type: functional
[34] = system: Pseudomonas aeruginosa; experiment: Antimicrobial activity against mexAB-oprM protein and mexCD-oprJ deficient Pseudomonas aeruginosa PAO238 by broth dilution method; type: functional
[35] = system: Enterobacter cloacae; experiment: Antimicrobial activity against Enterobacter cloacae 908R harboring beta-lactamase AmpC by broth dilution method; type: functional
[36] = system: Pseudomonas aeruginosa; experiment: Antimicrobial activity against Pseudomonas aeruginosa 621 assessed as number of passages required for MIC to rise above 4 times original MIC; type: functional
[37] = system: Pseudomonas aeruginosa; experiment: Antimicrobial activity against Pseudomonas aeruginosa BA(C1-106) selected after 25 ug/ml of compound exposure by broth dilution method; type: functional
[38] = system: Proteus mirabilis; experiment: Antimicrobial activity against Proteus mirabilis by broth dilution method; type: functional
[39] = system: Klebsiella pneumoniae; experiment: Antimicrobial activity against Klebsiella pneumoniae 1357E harboring beta-lactamase TEM-10 by broth dilution method; type: functional
[40] = system: Acinetobacter baumannii; experiment: Antimicrobial activity against Acinetobacter baumannii HPA74510 harboring beta-lactamase IMP-4 by broth dilution method; type: functional
[41] = system: Escherichia coli; experiment: Antimicrobial activity against Escherichia coli nmcA harboring beta-lactamase NMCA by broth dilution method; type: functional
[42] = system: Pseudomonas aeruginosa; experiment: microbe, parasite or virus in culture; details: 18S/H
Description: Antimicrobial activity against Pseudomonas aeruginosa 18S/H harboring beta-lactamase Class C by broth dilution method

[43] = system: Serratia marcescens; experiment: Antimicrobial activity against Serratia marcescens S6 harboring beta-lactamase SME-1.AmpC by broth dilution method; type: functional
[44] = system: Stenotrophomonas maltophilia; experiment: Antimicrobial activity against Stenotrophomonas maltophilia B715 harboring beta-lactamase L1and L2 by broth dilution method; type: functional
[45] = system: Pseudomonas aeruginosa; experiment: Antimicrobial activity against Pseudomonas aeruginosa HPA101-1477 harboring beta-lactamase IMP-1 by broth dilution method; type: functional
[46] = system: Klebsiella pneumoniae; experiment: Antimicrobial activity against Klebsiella pneumoniae 1338665 assessed as number of passages required for MIC to rise above 4 times original MIC; type: functional
[47] = system: Acinetobacter baumannii; experiment: Antimicrobial activity against Acinetobacter baumannii HPA 4737 harboring beta-lactamase OXA-26 by broth dilution method; type: functional
[48] = system: Escherichia coli; experiment: Antimicrobial activity against Escherichia coli K802N harboring beta-lactamase TEM-3 by broth dilution method; type: functional
[49] = system: Klebsiella aerogenes; experiment: Antimicrobial activity against Enterobacter aerogenes by broth dilution method; type: functional
[50] = system: Proteus penneri; experiment: Antimicrobial activity against Proteus penneri by broth dilution method; type: functional
[51] = system: Pseudomonas aeruginosa; experiment: Antimicrobial activity against mexAB-oprM protein and mexZ deficient Pseudomonas aeruginosa PAO267 by broth dilution method; type: functional
[52] = system: Enterobacter cloacae; experiment: Antimicrobial activity against Enterobacter cloacae S4741B assessed as number of passages required for MIC to rise above 4 times original MIC; type: functional
[53] = system: Pseudomonas aeruginosa; experiment: Antimicrobial activity against Pseudomonas aeruginosa HPA10586 harboring beta-lactamase VIM-1 by broth dilution method; type: functional
[54] = system: Klebsiella pneumoniae; experiment: Antimicrobial activity against Klebsiella pneumoniae YC harboring beta-lactamase KPC-2,TEM-1and SHV-2 by broth dilution method; type: functional
[55] = system: Pseudomonas aeruginosa; experiment: Antimicrobial activity against Pseudomonas aeruginosa BA assessed as number of passages required for MIC to rise above 4 times original MIC; type: functional
[56] = system: Proteus vulgaris; experiment: Antimicrobial activity against Proteus vulgaris by broth dilution method; type: functional
[57] = system: Klebsiella oxytoca; experiment: Antimicrobial activity against Klebsiella oxytoca by broth dilution method; type: functional
[58] = system: Pseudomonas aeruginosa; experiment: microbe, parasite or virus in culture; details: PAO1
Description: Antimicrobial activity against Pseudomonas aeruginosa PAO1 by broth dilution method

[59] = system: Acinetobacter sp.; experiment: Antimicrobial activity against Acinetobacter sp. by broth dilution method; type: functional
[60] = system: Klebsiella pneumoniae; experiment: Antimicrobial activity against Klebsiella pneumoniae 26768WU harboring beta-lactamase SHV-5 by broth dilution method; type: functional
[61] = system: Klebsiella oxytoca; experiment: Antimicrobial activity against Klebsiella oxytoca 1028E harboring beta-lactamase K1 by broth dilution method; type: functional
[62] = system: Pseudomonas aeruginosa; experiment: Antimicrobial activity against Pseudomonas aeruginosa BA(C2-107) selected after 25 ug/ml of compound exposure by broth dilution method; type: functional

Compound: C[C@@H](O)[C@H]1C(=O)N2C(C(=O)O)=C(SCCNC=N)C[C@H]12 [IMIPENEM ANHYDROUS]
- MIC [1]: > 32 µg/mL
- MIC [2]: 0.5 µg/mL (≈ 1.67 µM)
- MIC [3]: > 32 µg/mL
- Activity [4]: inactive
- Activity [5]: 9 passages
- MIC [6]: 1 µg/mL (≈ 3.34 µM)
- MIC [7]: 32 µg/mL (≈ 107 µM)
- MIC50 [8]: 32 µg/mL (≈ 107 µM)
- MIC90 [8]: > 32 µg/mL
- MIC [9]: > 32 µg/mL
- MIC50 [10]: 4 µg/mL (≈ 13.4 µM)
- MIC90 [10]: > 32 µg/mL
- MIC [11]: 2 µg/mL (≈ 6.68 µM)
- MIC [12]: > 32 µg/mL
- MIC [13]: 2 µg/mL (≈ 6.68 µM)
- Activity [14]: 1 passages
- MIC [15]: > 32 µg/mL
- MIC50 [16]: 4 µg/mL (≈ 13.4 µM)
- MIC90 [16]: 16 µg/mL (≈ 53.4 µM)
- MIC50 [17]: 2 µg/mL (≈ 6.68 µM)
- MIC90 [17]: 4 µg/mL (≈ 13.4 µM)
- MIC50 [18]: 1 µg/mL (≈ 3.34 µM)
- MIC90 [18]: 2 µg/mL (≈ 6.68 µM)
- MIC50 [19]: 0.25 µg/mL (≈ 0.835 µM)
- MIC90 [19]: 0.5 µg/mL (≈ 1.67 µM)
- Activity [20]: inactive
- MIC50 [21]: 2 µg/mL (≈ 6.68 µM)
- MIC90 [21]: 8 µg/mL (≈ 26.7 µM)
- MIC50 [22]: 1 µg/mL (≈ 3.34 µM)
- MIC90 [22]: 16 µg/mL (≈ 53.4 µM)
- MIC [23]: 2 µg/mL (≈ 6.68 µM)
- MIC [24]: 1 µg/mL (≈ 3.34 µM)
- Activity [25]: 17 passages
- MIC50 [26]: 4 µg/mL (≈ 13.4 µM)
- MIC90 [26]: 16 µg/mL (≈ 53.4 µM)
- MIC [27]: 1 µg/mL (≈ 3.34 µM)
- MIC [28]: > 32 µg/mL
- MIC50 [28]: > 32 µg/mL
- MIC90 [28]: > 32 µg/mL
- MIC [29]: 1 µg/mL (≈ 3.34 µM)
- MIC [30]: 0.25 µg/mL (≈ 0.835 µM)
- MIC [31]: 1 µg/mL (≈ 3.34 µM)
- MIC [32]: 0.25 µg/mL (≈ 0.835 µM)
- MIC [33]: 4 µg/mL (≈ 13.4 µM)
- MIC [34]: 2 µg/mL (≈ 6.68 µM)
- MIC [35]: 1 µg/mL (≈ 3.34 µM)
- Activity [36]: inactive
- MIC [37]: 1 µg/mL (≈ 3.34 µM)
- MIC50 [38]: 4 µg/mL (≈ 13.4 µM)
- MIC90 [38]: 8 µg/mL (≈ 26.7 µM)
- MIC [39]: 0.5 µg/mL (≈ 1.67 µM)
- MIC [40]: 16 µg/mL (≈ 53.4 µM)
- MIC [41]: > 32 µg/mL
- MIC [42]: 4 µg/mL (≈ 13.4 µM)
- MIC [43]: > 32 µg/mL
- MIC [44]: > 32 µg/mL
- MIC [45]: > 32 µg/mL
- Activity [46]: 2 passages
- MIC [47]: > 32 µg/mL
- MIC [48]: 32 µg/mL (≈ 107 µM)
- MIC50 [49]: 2 µg/mL (≈ 6.68 µM)
- MIC90 [49]: 16 µg/mL (≈ 53.4 µM)
- MIC50 [50]: 4 µg/mL (≈ 13.4 µM)
- MIC90 [50]: 8 µg/mL (≈ 26.7 µM)
- MIC [51]: 1 µg/mL (≈ 3.34 µM)
- Activity [52]: 3 passages
- MIC [53]: > 32 µg/mL
- MIC [54]: > 32 µg/mL
- Activity [55]: 4 passages
- MIC50 [56]: 4 µg/mL (≈ 13.4 µM)
- MIC90 [56]: 8 µg/mL (≈ 26.7 µM)
- MIC50 [57]: 0.25 µg/mL (≈ 0.835 µM)
- MIC90 [57]: 1 µg/mL (≈ 3.34 µM)
- MIC [58]: 2 µg/mL (≈ 6.68 µM)
- MIC50 [59]: 0.25 µg/mL (≈ 0.835 µM)
- MIC90 [59]: 32 µg/mL (≈ 107 µM)
- MIC [60]: 1 µg/mL (≈ 3.34 µM)
- MIC [61]: 0.5 µg/mL (≈ 1.67 µM)
- MIC [62]: 1 µg/mL (≈ 3.34 µM)

Source: ChEMBL document CHEMBL1255477, “In vitro properties of BAL30072, a novel siderophore sulfactam with activity against multiresistant gram-negative bacilli” (Antimicrob Agents Chemother, 2010)
